Experimental data as given in ChEMBL document CHEMBL3991601, “The target landscape of clinical kinase drugs” (Science, 2017).
Activity calls are given as the source filed them.

Key:
[1] = target: Cyclin-dependent kinase 17 (Homo sapiens, UniProt Q00537)
[2] = target: Dual specificity protein kinase CLK4 (Homo sapiens, UniProt Q9HAZ1)
UMP-CMP kinase = target: T1, UMP-CMP kinase (Homo sapiens, UniProt P30085)
T1 sequence (P30085 whole entry): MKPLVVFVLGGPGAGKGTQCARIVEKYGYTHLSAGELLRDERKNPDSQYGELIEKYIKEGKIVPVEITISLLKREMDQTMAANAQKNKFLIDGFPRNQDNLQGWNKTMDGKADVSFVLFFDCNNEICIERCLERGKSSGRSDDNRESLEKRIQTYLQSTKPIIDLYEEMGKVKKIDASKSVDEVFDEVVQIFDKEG

[3] = target: Dual specificity tyrosine-phosphorylation-regulated kinase 1B (Homo sapiens, UniProt Q9Y463)
Ephrin type-A receptor 1 = target: T2, Ephrin type-A receptor 1 (Homo sapiens, UniProt P21709)
T2 sequence (P21709 whole entry): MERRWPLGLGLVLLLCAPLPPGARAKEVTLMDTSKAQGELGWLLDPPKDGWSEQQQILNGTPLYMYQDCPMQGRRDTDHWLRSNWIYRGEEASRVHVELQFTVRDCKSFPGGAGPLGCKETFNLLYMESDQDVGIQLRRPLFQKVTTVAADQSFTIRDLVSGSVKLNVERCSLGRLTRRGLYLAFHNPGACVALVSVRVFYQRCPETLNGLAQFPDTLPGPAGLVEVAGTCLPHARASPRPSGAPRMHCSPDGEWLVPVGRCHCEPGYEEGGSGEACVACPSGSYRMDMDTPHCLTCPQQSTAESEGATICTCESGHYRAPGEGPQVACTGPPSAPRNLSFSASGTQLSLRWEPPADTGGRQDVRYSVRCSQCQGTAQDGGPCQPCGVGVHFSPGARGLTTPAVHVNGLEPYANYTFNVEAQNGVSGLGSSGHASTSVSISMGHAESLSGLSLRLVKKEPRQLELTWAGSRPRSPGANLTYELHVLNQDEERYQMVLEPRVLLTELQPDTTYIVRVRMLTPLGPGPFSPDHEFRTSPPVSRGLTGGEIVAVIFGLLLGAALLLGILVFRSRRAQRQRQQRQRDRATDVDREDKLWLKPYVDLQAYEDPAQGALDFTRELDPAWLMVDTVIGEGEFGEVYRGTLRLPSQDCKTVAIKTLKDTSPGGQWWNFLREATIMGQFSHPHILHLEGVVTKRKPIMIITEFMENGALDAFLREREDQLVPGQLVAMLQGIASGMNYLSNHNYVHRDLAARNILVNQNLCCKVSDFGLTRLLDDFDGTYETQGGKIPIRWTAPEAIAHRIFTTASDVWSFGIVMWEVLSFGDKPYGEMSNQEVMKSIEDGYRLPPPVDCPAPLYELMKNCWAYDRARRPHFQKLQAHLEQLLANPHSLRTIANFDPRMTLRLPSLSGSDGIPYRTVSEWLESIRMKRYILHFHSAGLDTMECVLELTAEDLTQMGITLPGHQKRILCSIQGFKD

[4] = target: G protein-coupled receptor kinase 6 (Homo sapiens, UniProt P43250)
[5] = target: Eukaryotic peptide chain release factor GTP-binding subunit ERF3B (Homo sapiens, UniProt Q8IYD1)
Myosin-10 = Myosin-10 (Homo sapiens, UniProt P35580)
[6] = target: High affinity nerve growth factor receptor (Homo sapiens, UniProt P04629)
[7] = target: T3, Phosphatidylinositol 5-phosphate 4-kinase type-2 alpha (Homo sapiens, UniProt P48426)
T3 sequence (P48426 whole entry): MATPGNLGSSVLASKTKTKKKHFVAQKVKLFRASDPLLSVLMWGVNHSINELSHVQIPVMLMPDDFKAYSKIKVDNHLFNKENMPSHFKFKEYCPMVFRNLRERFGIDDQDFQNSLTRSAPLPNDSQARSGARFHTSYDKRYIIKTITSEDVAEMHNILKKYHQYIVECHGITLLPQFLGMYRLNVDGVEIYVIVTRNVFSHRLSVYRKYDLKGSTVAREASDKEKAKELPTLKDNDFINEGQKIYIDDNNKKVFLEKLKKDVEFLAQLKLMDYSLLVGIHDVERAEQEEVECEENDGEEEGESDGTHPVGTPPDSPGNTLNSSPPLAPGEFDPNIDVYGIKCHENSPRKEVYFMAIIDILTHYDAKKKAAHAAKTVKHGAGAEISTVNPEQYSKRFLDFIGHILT

[8] = target: Serine/threonine-protein kinase 24 (Homo sapiens, UniProt Q9Y6E0)
[9] = target: Tyrosine-protein kinase Fgr (Homo sapiens, UniProt P09769)
[10] = target: MAP kinase-activated protein kinase 3 (Homo sapiens, UniProt Q16644)
[11] = target: Serine/threonine-protein kinase pim-2 (Homo sapiens, UniProt Q9P1W9)
[12] = target: T4, Dual specificity mitogen-activated protein kinase kinase 4 (Homo sapiens, UniProt P45985)
T4 sequence (P45985 whole entry): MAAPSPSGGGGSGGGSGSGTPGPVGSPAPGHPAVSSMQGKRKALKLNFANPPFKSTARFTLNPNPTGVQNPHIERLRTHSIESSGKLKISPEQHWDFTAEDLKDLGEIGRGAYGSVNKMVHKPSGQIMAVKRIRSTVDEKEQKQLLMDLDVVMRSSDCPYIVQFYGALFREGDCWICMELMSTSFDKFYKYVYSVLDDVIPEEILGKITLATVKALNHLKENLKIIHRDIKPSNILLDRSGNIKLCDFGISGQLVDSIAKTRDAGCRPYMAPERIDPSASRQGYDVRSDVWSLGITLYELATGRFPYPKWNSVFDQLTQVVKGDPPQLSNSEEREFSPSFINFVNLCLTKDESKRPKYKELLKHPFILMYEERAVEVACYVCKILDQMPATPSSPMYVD

[13] = target: Serine/threonine-protein kinase 38 (Homo sapiens, UniProt Q15208)
Note: in the data inactive means no Kd found up to 30 µM.

Sequence of Dual specificity protein kinase CLK4 (Q9HAZ1 whole entry): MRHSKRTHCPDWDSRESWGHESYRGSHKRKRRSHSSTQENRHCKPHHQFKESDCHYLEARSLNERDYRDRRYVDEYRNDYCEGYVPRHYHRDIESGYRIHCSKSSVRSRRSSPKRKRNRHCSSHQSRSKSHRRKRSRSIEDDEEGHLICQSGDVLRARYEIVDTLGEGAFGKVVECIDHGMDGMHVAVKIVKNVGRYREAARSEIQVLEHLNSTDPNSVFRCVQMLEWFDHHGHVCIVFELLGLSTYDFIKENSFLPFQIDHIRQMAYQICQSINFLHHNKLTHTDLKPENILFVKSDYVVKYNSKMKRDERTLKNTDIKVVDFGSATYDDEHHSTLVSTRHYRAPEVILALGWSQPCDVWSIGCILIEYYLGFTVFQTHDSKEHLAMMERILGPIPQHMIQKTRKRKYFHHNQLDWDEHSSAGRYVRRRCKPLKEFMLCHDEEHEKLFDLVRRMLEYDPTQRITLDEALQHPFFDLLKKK
Sequence of Serine/threonine-protein kinase 24 (Q9Y6E0 whole entry): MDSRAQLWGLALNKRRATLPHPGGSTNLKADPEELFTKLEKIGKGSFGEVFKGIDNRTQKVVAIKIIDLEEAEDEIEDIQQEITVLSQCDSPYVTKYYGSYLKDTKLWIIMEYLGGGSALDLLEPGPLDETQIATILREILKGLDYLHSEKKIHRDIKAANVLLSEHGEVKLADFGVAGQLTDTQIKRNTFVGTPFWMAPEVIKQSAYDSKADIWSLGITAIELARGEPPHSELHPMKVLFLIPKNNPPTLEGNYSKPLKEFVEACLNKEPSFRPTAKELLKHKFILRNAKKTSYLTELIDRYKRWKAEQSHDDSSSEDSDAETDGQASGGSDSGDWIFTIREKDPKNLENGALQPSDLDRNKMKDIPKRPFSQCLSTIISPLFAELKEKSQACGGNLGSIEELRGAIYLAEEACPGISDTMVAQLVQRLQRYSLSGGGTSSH
Sequence of Dual specificity tyrosine-phosphorylation-regulated kinase 1B (Q9Y463 whole entry): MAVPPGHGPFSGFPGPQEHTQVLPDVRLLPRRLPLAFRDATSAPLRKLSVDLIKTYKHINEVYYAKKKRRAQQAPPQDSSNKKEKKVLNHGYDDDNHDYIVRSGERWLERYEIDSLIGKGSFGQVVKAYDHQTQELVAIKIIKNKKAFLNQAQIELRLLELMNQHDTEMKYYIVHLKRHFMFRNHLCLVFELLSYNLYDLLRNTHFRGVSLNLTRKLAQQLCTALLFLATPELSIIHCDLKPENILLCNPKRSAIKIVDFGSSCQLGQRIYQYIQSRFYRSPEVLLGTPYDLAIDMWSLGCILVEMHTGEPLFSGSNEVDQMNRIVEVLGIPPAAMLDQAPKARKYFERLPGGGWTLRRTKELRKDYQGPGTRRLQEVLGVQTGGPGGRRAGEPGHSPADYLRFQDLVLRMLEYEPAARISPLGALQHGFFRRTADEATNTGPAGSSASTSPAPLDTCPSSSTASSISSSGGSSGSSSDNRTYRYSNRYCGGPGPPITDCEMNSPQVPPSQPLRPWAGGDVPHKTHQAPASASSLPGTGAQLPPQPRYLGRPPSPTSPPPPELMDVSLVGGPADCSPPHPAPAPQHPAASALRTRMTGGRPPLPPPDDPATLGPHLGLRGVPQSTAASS
Sequence of Tyrosine-protein kinase Fgr (P09769 whole entry): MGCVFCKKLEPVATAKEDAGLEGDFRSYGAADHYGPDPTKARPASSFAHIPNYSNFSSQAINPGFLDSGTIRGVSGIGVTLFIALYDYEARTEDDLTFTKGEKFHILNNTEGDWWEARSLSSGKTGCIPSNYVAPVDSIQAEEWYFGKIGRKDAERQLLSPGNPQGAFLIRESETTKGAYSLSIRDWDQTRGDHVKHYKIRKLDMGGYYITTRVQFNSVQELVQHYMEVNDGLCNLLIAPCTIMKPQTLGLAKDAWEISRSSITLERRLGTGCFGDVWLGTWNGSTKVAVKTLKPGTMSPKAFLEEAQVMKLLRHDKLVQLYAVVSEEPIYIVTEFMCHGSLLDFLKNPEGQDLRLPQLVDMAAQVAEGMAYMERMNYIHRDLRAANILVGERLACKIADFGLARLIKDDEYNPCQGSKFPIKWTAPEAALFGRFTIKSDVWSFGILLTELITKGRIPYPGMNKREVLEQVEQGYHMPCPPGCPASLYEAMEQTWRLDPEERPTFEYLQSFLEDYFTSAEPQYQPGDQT
Sequence of MAP kinase-activated protein kinase 3 (Q16644 whole entry): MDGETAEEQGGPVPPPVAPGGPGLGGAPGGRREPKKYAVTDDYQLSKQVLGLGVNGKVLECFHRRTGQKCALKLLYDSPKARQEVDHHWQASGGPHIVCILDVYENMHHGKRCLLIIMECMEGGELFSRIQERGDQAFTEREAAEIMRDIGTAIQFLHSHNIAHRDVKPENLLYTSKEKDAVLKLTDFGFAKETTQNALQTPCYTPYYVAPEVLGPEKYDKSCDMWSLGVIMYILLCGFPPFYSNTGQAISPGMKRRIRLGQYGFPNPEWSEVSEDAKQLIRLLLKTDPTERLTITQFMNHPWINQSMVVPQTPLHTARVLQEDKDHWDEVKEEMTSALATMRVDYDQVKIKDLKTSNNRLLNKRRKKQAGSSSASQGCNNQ
Sequence of Serine/threonine-protein kinase 38 (Q15208 whole entry): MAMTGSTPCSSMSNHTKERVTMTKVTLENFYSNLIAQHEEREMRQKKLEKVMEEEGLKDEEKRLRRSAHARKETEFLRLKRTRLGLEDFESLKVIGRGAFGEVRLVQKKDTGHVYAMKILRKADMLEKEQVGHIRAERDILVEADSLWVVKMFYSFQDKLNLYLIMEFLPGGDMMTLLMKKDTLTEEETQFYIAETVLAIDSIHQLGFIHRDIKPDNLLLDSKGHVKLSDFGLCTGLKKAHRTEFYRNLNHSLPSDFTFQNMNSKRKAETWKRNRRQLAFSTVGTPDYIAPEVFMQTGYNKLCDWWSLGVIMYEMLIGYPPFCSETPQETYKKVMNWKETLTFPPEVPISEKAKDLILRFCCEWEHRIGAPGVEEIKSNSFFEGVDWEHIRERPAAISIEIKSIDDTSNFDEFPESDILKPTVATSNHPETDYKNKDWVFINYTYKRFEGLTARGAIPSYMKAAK
Sequence of G protein-coupled receptor kinase 6 (P43250 whole entry): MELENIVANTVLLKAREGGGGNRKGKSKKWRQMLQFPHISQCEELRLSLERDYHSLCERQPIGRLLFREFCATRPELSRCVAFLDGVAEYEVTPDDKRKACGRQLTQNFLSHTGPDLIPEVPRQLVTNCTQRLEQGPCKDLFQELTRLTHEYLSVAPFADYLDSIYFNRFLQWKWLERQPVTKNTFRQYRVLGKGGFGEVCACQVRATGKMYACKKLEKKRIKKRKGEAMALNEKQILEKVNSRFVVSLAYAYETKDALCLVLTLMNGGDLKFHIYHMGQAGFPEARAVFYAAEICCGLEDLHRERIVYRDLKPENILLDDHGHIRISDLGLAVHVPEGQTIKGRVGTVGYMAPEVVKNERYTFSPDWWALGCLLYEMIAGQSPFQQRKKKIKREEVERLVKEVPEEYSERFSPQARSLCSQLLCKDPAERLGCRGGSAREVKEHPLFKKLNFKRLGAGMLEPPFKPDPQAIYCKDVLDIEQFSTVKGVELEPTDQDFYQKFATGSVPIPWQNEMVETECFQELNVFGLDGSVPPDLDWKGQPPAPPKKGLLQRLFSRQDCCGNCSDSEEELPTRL
Sequence of Eukaryotic peptide chain release factor GTP-binding subunit ERF3B (Q8IYD1 whole entry): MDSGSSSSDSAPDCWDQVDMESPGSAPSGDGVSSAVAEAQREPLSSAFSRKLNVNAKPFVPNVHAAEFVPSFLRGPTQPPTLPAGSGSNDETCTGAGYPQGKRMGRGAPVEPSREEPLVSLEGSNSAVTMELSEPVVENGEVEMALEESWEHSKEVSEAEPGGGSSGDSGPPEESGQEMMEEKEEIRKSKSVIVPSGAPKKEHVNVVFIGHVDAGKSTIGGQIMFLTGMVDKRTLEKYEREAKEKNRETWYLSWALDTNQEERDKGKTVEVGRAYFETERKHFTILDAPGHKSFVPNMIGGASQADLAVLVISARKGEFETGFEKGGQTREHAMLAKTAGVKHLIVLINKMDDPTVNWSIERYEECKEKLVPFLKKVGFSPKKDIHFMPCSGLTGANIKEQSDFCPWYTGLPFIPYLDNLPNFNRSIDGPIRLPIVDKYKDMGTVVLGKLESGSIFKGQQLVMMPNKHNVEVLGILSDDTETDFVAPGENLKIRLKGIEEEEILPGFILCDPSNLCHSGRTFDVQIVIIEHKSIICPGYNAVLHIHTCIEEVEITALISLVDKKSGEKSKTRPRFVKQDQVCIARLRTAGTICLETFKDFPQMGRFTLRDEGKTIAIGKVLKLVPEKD
Sequence of Serine/threonine-protein kinase pim-2 (Q9P1W9 whole entry): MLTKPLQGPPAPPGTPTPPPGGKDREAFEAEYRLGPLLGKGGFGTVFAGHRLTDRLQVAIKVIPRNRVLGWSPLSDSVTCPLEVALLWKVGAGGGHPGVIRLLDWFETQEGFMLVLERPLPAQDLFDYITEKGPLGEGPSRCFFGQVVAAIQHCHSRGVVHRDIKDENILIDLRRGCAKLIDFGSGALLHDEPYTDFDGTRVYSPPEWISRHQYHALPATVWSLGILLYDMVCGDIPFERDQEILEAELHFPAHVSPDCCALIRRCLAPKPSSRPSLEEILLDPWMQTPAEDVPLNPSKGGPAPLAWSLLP
Sequence of Cyclin-dependent kinase 17 (Q00537 whole entry): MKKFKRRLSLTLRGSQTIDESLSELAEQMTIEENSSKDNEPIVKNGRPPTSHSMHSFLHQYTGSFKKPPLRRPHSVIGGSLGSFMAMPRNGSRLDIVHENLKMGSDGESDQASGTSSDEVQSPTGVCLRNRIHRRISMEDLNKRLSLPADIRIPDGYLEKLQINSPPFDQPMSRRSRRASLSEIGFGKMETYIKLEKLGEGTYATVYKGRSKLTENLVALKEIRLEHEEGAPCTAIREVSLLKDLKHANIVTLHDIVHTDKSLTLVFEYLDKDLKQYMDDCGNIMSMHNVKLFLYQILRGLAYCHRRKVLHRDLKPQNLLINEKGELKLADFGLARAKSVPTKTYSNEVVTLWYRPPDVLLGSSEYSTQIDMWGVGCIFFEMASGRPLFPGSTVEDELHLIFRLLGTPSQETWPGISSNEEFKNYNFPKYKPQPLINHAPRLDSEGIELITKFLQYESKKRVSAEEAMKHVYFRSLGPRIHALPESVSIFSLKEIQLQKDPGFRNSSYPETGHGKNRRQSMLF

Kd [1]	Kd [2]	Kd (UMP-CMP kinase)	Kd [3]	Kd (Ephrin type-A receptor 1)	Kd [4]	Kd [5]	Kd (Myosin-10)	Kd [6]	Kd [7]	Kd [8]	Kd [9]	Kd [10]	Kd [11]	Kd [12]	Kd [13]	Compound
> 30 µM (inactive)	> 30 µM (inactive)	> 30 µM (inactive)	> 30 µM (inactive)	> 30 µM (inactive)	> 30 µM (inactive)	> 30 µM (inactive)	> 30 µM (inactive)	> 30 µM (inactive)	> 30 µM (inactive)	> 30 µM (inactive)						COC(=O)N[C@@H](C)CNc1nccc(-c2cn(C(C)C)nc2-c2cc(Cl)cc(NS(C)(=O)=O)c2F)n1 [ENCORAFENIB]
> 30 µM (inactive)	> 30 µM (inactive)	> 30 µM (inactive)	> 30 µM (inactive)	> 30 µM (inactive)	> 30 µM (inactive)	> 30 µM (inactive)	> 30 µM (inactive)	> 30 µM (inactive)	> 30 µM (inactive)		> 30 µM (inactive)		> 30 µM (inactive)			CCCS(=O)(=O)Nc1ccc(F)c(C(=O)c2c[nH]c3ncc(-c4ccc(Cl)cc4)cc23)c1F [VEMURAFENIB]
> 30 µM (inactive)	> 30 µM (inactive)		> 30 µM (inactive)	> 30 µM (inactive)	> 30 µM (inactive)			> 30 µM (inactive)	> 30 µM (inactive)	> 30 µM (inactive)	> 30 µM (inactive)	> 30 µM (inactive)		> 30 µM (inactive)	> 30 µM (inactive)	CC[C@H](Nc1ncnc2[nH]cnc12)c1nc2cccc(F)c2c(=O)n1-c1ccccc1 [IDELALISIB]
> 30 µM (inactive)	> 30 µM (inactive)	> 30 µM (inactive)		> 30 µM (inactive)	> 30 µM (inactive)	> 30 µM (inactive)	> 30 µM (inactive)	> 30 µM (inactive)	> 30 µM (inactive)		> 30 µM (inactive)					CO[C@H]1C[C@@H]2CC[C@@H](C)[C@@](O)(O2)C(=O)C(=O)N2CCCC[C@H]2C(=O)O[C@H]([C@H](C)C[C@@H]2CC[C@@H](OCCO)[C@H](OC)C2)CC(=O)[C@H](C)/C=C(\C)[C@@H](O)[C@@H](OC)C(=O)[C@H](C)C[C@H](C)/C=C/C=C/C=C/1C [EVEROLIMUS]
		> 30 µM (inactive)	> 30 µM (inactive)	> 30 µM (inactive)	> 30 µM (inactive)		> 30 µM (inactive)	> 30 µM (inactive)	> 30 µM (inactive)	> 30 µM (inactive)	> 30 µM (inactive)					CN1N=C(N)c2cn([C@@H]3O[C@H](COP(=O)(O)O)[C@@H](O)[C@H]3O)c3ncnc1c23 [TRICIRIBINE PHOSPHATE]
> 30 µM (inactive)		> 30 µM (inactive)		> 30 µM (inactive)		> 30 µM (inactive)	> 30 µM (inactive)		> 30 µM (inactive)	> 30 µM (inactive)	> 30 µM (inactive)	> 30 µM (inactive)	> 30 µM (inactive)	> 30 µM (inactive)	> 30 µM (inactive)	OCCn1cc(-c2cnc3nnn(Cc4ccc5ncccc5c4)c3n2)cn1 [PF-04217903]
> 30 µM (inactive)	> 30 µM (inactive)	> 30 µM (inactive)	> 30 µM (inactive)	> 30 µM (inactive)		> 30 µM (inactive)	> 30 µM (inactive)	> 30 µM (inactive)	> 30 µM (inactive)	> 30 µM (inactive)		> 30 µM (inactive)		> 30 µM (inactive)		CC(C)Nc1cc(-c2c[nH]c(C(=O)N[C@H](CO)c3cccc(Cl)c3)c2)c(Cl)cn1 [ULIXERTINIB]
> 30 µM (inactive)	> 30 µM (inactive)	> 30 µM (inactive)	> 30 µM (inactive)	> 30 µM (inactive)	> 30 µM (inactive)	> 30 µM (inactive)	> 30 µM (inactive)	> 30 µM (inactive)	> 30 µM (inactive)			0.023 µM (active)	> 30 µM (inactive)	> 30 µM (inactive)		Cc1ccc(NC(=O)c2ccc(CN3CC[C@H](N(C)C)C3)c(C(F)(F)F)c2)cc1Nc1nccc(-c2cncnc2)n1 [BAFETINIB]
> 30 µM (inactive)			> 30 µM (inactive)	> 30 µM (inactive)	> 30 µM (inactive)		> 30 µM (inactive)	> 30 µM (inactive)	> 30 µM (inactive)	> 30 µM (inactive)						O=C1NC(=O)/C(=C/c2ccc3nccc(-c4ccncc4)c3c2)S1 [GSK-1059615]
> 30 µM (inactive)	> 30 µM (inactive)	> 30 µM (inactive)	> 30 µM (inactive)	> 30 µM (inactive)	> 30 µM (inactive)		> 30 µM (inactive)	> 30 µM (inactive)	> 30 µM (inactive)	> 30 µM (inactive)			> 30 µM (inactive)	> 30 µM (inactive)		COc1ccc(-c2ccc3c(N4CCOC[C@@H]4C)nc(N4CCOC[C@@H]4C)nc3n2)cc1CO [AZD-8055]
> 30 µM (inactive)		> 30 µM (inactive)	> 30 µM (inactive)	> 30 µM (inactive)	> 30 µM (inactive)		> 30 µM (inactive)	> 30 µM (inactive)	> 30 µM (inactive)	> 30 µM (inactive)		> 30 µM (inactive)	> 30 µM (inactive)	> 30 µM (inactive)		Cc1cc2c(F)c(Oc3ncnn4cc(OC[C@@H](C)OC(=O)[C@H](C)N)c(C)c34)ccc2[nH]1 [BRIVANIB ALANINATE]

Compound	Kd [1]	Kd [2]	Kd (UMP-CMP kinase)	Kd [3]	Kd (Ephrin type-A receptor 1)	Kd [4]	Kd [5]	Kd (Myosin-10)	Kd [6]	Kd [7]	Kd [8]	Kd [9]	Kd [10]	Kd [11]	Kd [12]	Kd [13]
Cc1cc(-c2cc(O)ccc2Cl)cc2nnc(Nc3ccc(OCCN4CCCC4)cc3)nc12	> 30 µM (inactive)		> 30 µM (inactive)	> 30 µM (inactive)	> 30 µM (inactive)			> 30 µM (inactive)	> 30 µM (inactive)	> 30 µM (inactive)	> 30 µM (inactive)	> 30 µM (inactive)	> 30 µM (inactive)	> 30 µM (inactive)		
COC(=O)[C@@]1(O)C[C@H]2O[C@]1(C)n1c3ccccc3c3c4c(c5c6ccccc6n2c5c31)C(=O)NC4 [K-252A]	> 30 µM (inactive)	0.015 µM (active)		> 30 µM (inactive)	> 30 µM (inactive)					> 30 µM (inactive)	> 30 µM (inactive)		> 30 µM (inactive)	> 30 µM (inactive)	> 30 µM (inactive)	> 30 µM (inactive)
